Source: patent US5567692A, “9-[(substituted glycyl) amido)]-6-demethyl-6-deoxytetracyclines” (priority 1995, dated 1996)
In brackets after ≈: the same amount, converted by molar mass.

Experiments:
Format in all cases: cell-based
[1] = test system: E. coli J3272 Tet sens; test: MIC, agar dilution; details: Escherichia coli, J3272TETSENS, 18 h
[2] = test system: E. coli J2175; test: MIC, agar dilution; details: Escherichia coli, 18 h, read-out: MIC
[3] = test system: E. coli UBMS 90-5; test: microbe, parasite or virus in culture; details: Escherichia coli, UBMS905, 18 h, E. coli UBMS 90-5; read-out: MIC
[4] = test system: E. coli ATCC 25922; test: MIC, agar dilution; details: Escherichia coli, ATCC25922, 18 h
[5] = test system: S. marcescens FPOR 8733; test: MIC, agar dilution; details: Serratia marcescens, FPOR8733, 18 h
[6] = test system: Ps. aeruginosa ATCC 27853; test: MIC, agar dilution; details: Pseudomonas aeruginosa, ATCC27853, 18 h
[7] = test system: S. aureus NEMC 8769; test: MIC, agar dilution; details: Staphylococcus aureus, NEMC8769, 18 h
[8] = test system: S. aureus UBMS 88-4; test: MIC, agar dilution; details: Staphylococcus aureus, UBMS884, 18 h; S. aureus UBMS 88-4
[9] = test system: S. aureus UBMS 90-3; test: MIC, agar dilution; details: Staphylococcus aureus, UBMS903, 18 h, S. aureus UBMS 90-3
[10] = test system: S. aureus SMITH (MP); test: MIC, agar dilution; details: Staphylococcus aureus, 18 h; S. aureus SMITH (MP)
[11] = test system: S. aureus ATCC 29213; test: MIC, agar dilution; details: Staphylococcus aureus, ATCC29213, 18 h, S. aureus ATCC 29213
[12] = test system: S. hemolyticus AVHAH 88-3; test: MIC, agar dilution; details: Streptococcus pyogenes, AVHAH883, 18 h
[13] = test system: Enterococcus 12201; test: MIC, agar dilution; details: Enterococcus, 12201, 18 h
[14] = test system: Staphylococcus aureus, (methicillin-susceptible); test: MIC range, recent clinical and veterinary isolates; details: Staphylococcus aureus, 18 h, read-out: MIC Range
[15] = test system: Enterococcus faecalis; test: MIC range, recent clinical and veterinary isolates; details: 18 h, read-out: MIC Range
[16] = test system: Enterococcus faecium; test: MIC range, recent clinical and veterinary isolates; details: 18 h, read-out: MIC Range
[17] = test system: Streptococcus pyogenes; test: MIC range, recent clinical and veterinary isolates; details: 18 h, read-out: MIC Range
[18] = test system: Streptococcus agalactiae; test: MIC range, recent clinical and veterinary isolates; details: 18 h, read-out: MIC Range
[19] = test system: Streptococcus pneumoniae; test: MIC range, recent clinical and veterinary isolates; details: 18 h, read-out: MIC Range
[20] = test system: Klebsiella oxytoca; test: MIC range, recent clinical and veterinary isolates; details: 18 h, read-out: MIC Range
[21] = test system: Citrobacter freundii; test: MIC range, recent clinical and veterinary isolates; details: 18 h, read-out: MIC Range
[22] = test system: Citrobacter diversus; test: MIC range, recent clinical and veterinary isolates; details: Citrobacter koseri, 18 h, read-out: MIC Range
[23] = test system: Enterobacter cloacae; test: MIC range, recent clinical and veterinary isolates; details: 18 h, read-out: MIC Range
[24] = test system: Enterobacter aerogenes; test: MIC range, recent clinical and veterinary isolates; details: Klebsiella aerogenes, 18 h, read-out: MIC Range
[25] = test system: Proteus mirabilis; test: MIC range, recent clinical and veterinary isolates; details: 18 h, read-out: MIC Range
[26] = test system: Proteus vulgaris; test: MIC range, recent clinical and veterinary isolates; details: 18 h, read-out: MIC Range
[27] = test system: Pseudomonas aeruginosa; test: MIC range, recent clinical and veterinary isolates; details: 18 h, read-out: MIC Range
[28] = test system: Xanthamonas maltophilia; test: MIC range, recent clinical and veterinary isolates; details: 18 h, read-out: MIC Range
[29] = test system: Moraxella catarrhalis; test: MIC range, recent clinical and veterinary isolates; details: 18 h, read-out: MIC Range
[30] = test system: Haemophilus influenzae; test: MIC range, recent clinical and veterinary isolates; details: 18 h, [15] isolates
[31] = test system: Pasturella multocida (Veterinary); test: MIC range, recent clinical and veterinary isolates; details: 18 h, [17] isolates
[32] = test system: Bordetella bronchiseptica (Veterinary); test: MIC range, recent clinical and veterinary isolates; details: Bordetella bronchiseptica, 18 h, read-out: MIC Range
[33] = test system: Bacteroides fragilis group; test: MIC range, recent clinical and veterinary isolates; details: Bacteroides fragilis, 18 h, read-out: MIC Range
[34] = test system: Clostridium difficile; test: MIC range, recent clinical and veterinary isolates; details: Clostridioides difficile, 18 h, read-out: MIC Range
[35] = test system: Clostridium perfringens; test: microbe, parasite or virus in culture; details: [16] isolates
[36] = test system: Clostridium spp.; test: MIC range, recent clinical and veterinary isolates; details: [9] isolates

Q: How did the MIC [1] turn out when `CN(C)[C@@H]1C(O)=C(C(N)=O)C(=O)[C@@]2(O)C(O)=C3C(=O)c4c(O)cccc4[C@@](C)(O)[C@H]3C[C@@H]12` [T, Tetracycline] was run?
A: The MIC was 1 µg/mL (≈ 2.25 µM).

Q: What about the MIC [2] of the same compound?
A: Its MIC is 1 µg/mL (≈ 2.25 µM).

Q: What about the MIC [3] of the same compound?
A: The MIC was 0.5 µg/mL (≈ 1.13 µM).

Q: And the MIC [4]?
A: Its MIC is 0.5 µg/mL (≈ 1.13 µM).

Q: What about the MIC [5] of the same compound?
A: The MIC was over 32 µg/mL.

Q: What about the MIC [6] of the same compound?
A: Its MIC is 8 µg/mL (≈ 18 µM).

Q: And the MIC [7]?
A: Its MIC is 0.06 µg/mL (≈ 0.135 µM).

Q: And the MIC [8]?
A: Its MIC is 0.12 µg/mL (≈ 0.27 µM).

Q: And the MIC [9]?
A: The MIC was 0.12 µg/mL (≈ 0.27 µM).

Q: And the MIC [10]?
A: The MIC was 0.12 µg/mL (≈ 0.27 µM).

Q: And the MIC [11]?
A: The MIC was under 0.015 µg/mL.

Q: And the MIC [12]?
A: Its MIC is 0.5 µg/mL (≈ 1.13 µM).

Q: And the MIC [13]?
A: Its MIC is 32 µg/mL (≈ 72 µM).

Q: What about the MIC [14] of the same compound?
A: Its MIC is 0.12 to 1 µg/mL (≈ 0.27 to 2.25 µM).

Q: And the MIC [15]?
A: Its MIC is 0.12 to 64 µg/mL (≈ 0.27 to 144 µM).

Q: And the MIC [16]?
A: The MIC was 0.12 to 64 µg/mL (≈ 0.27 to 144 µM).

Q: What about the MIC [17] of the same compound?
A: The MIC was 0.12 to 16 µg/mL (≈ 0.27 to 36 µM).

Q: What about the MIC [18] of the same compound?
A: The MIC was 0.25 to 64 µg/mL (≈ 0.563 to 144 µM).

Q: What about the MIC [19] of the same compound?
A: Its MIC is 0.12 to 2 µg/mL (≈ 0.27 to 4.5 µM).

Q: What about the MIC [20] of the same compound?
A: The MIC was 0.5 to 1 µg/mL (≈ 1.13 to 2.25 µM).

Q: What about the MIC [21] of the same compound?
A: The MIC was 0.5 to 16 µg/mL (≈ 1.13 to 36 µM).

Q: And the MIC [22]?
A: Its MIC is 0.5 to 4 µg/mL (≈ 1.13 to 9 µM).

Q: And the MIC [23]?
A: Its MIC is 0.5 to 2 µg/mL (≈ 1.13 to 4.5 µM).

Q: And the MIC [24]?
A: The MIC was 0.5 to 1 µg/mL (≈ 1.13 to 2.25 µM).

Q: What about the MIC [25] of the same compound?
A: Its MIC is 0.5 to 64 µg/mL (≈ 1.13 to 144 µM).

Q: What about the MIC [26] of the same compound?
A: Its MIC is 0.25 to 64 µg/mL (≈ 0.563 to 144 µM).

Q: What about the MIC [27] of the same compound?
A: The MIC was 2 to 32 µg/mL (≈ 4.5 to 72 µM).

Q: And the MIC [28]?
A: The MIC was 8 to 16 µg/mL (≈ 18 to 36 µM).

Q: What about the MIC [29] of the same compound?
A: Its MIC is 0.06 to 0.5 µg/mL (≈ 0.135 to 1.13 µM).

Q: What about the MIC [30] of the same compound?
A: The MIC was 1 to 32 µg/mL (≈ 2.25 to 72 µM).

Q: And the MIC [31]?
A: Its MIC is 0.06 to 16 µg/mL (≈ 0.135 to 36 µM).

Q: And the MIC [32]?
A: Its MIC is 0.12 to 0.25 µg/mL (≈ 0.27 to 0.563 µM).

Q: And the MIC [33]?
A: The MIC was 0.25 to 32 µg/mL (≈ 0.563 to 72 µM).

Q: What about the MIC [34] of the same compound?
A: Its MIC is 0.12 to 32 µg/mL (≈ 0.27 to 72 µM).

Q: And the “MIC Range” value [35]?
A: Its value is 0.015 to 16 µg/mL.

Q: What about the “MIC Range” value [36] of the same compound?
A: Its value is 0.015 to 64 µg/mL.
